Tests used:
Type in all cases: in vivo
[1] = test system: waterhemp (common waterhemp, Amaranthus rudis); assay: Test E preemergence; conditions: scale 0 to 100
Source text: (§1) Seeds of plant species selected from corn (Zea mays), soybean (Glycine max), velvetleaf (Abutilon theophrasti), lambsquarters (Chenopodium album), poinsettia, wild (wild poinsettia, Euphorbia heterophylla), pigweed, palmer (palmer pigweed, Amaranthus palmeri), waterhemp (common waterhemp, Amaranthus rudis), surinam grass (Brachiaria decumbens), crabgrass, large (large crabgrass, Digitaria sangumnalis), crabgrass, Brazil (Brazilian crabgrass, Digitaria horizontalis), Panicum, fall (fall Panicum, Panicum dichotomiflorum), foxtail, giant (giant foxtail, Setaria faberii), foxtail, green (green foxtail, Setaria viridis), goosegrass (Eleusine indica), johnsongrass (Sorghum halepense), ragweed (common ragweed, Ambrosia elatior), barnyardgrass (Echinochloa crus-galli), sandbur (southern sandbur, Cenchrus echinatus), arrowleaf Sida (Sida rhombifolia), ryegrass, Italian (Italian ryegrass, Lolium multiflorum), dayflower, VA (Virginia dayflower, Commelina virginica), field bindweed (Convolvulus arvensis), morningglory (Ipomoea coccinea), nightshade (eastern black nightshade, Solanum ptycanthum), Kochia (Kochia scoparia), nutsedge, yellow (yellow nutsedge, Cyperus esculentus), horseweed (Conyza canadensis), and beggarticks (hairy beggarticks, Bidens pilosa), were planted into a silt loam soil and treated preemergence with test chemicals formulated in a non-phytotoxic solvent mixture which included a surfactant.
(§2) At the same time, plants selected from these crop and weed species were planted in pots containing Sunshine Redi-Earth planting medium comprising spaghnum peat moss, vermiculite, starter nutrients and dolomitic limestone and treated with postemergence applications of a test chemical formulated in the same manner. Plants ranged in height from 2 to 18 cm (1- to 4-leaf stage) for postemergence treatments. Treated plants and controls were maintained in a greenhouse for 14 to 21 d, after which time all species were compared to controls and visually evaluated. Plant response ratings, summarized in Table E, are based on a scale of 0 to 100 where 0 is no effect and 100 is complete control. A dash (-) response means no test result.

[2] = test system: Panicum, fall (fall Panicum, Panicum dichotomiflorum); assay: Test E preemergence; conditions: scale 0 to 100
Source text: as §1, §2

[3] = test system: foxtail, green (green foxtail, Setaria viridis); assay: Test E preemergence; conditions: scale 0 to 100
Source text: as §1, §2

[4] = test system: Kochia (Kochia scoparia); assay: Test E preemergence; conditions: scale 0 to 100
Source text: as §1, §2

[5] = test system: dayflower, VA (Virginia dayflower, Commelina virginica); assay: Test E preemergence; conditions: scale 0 to 100
Source text: as §1, §2

[6] = test system: goosegrass (Eleusine indica); assay: Test E preemergence; conditions: scale 0 to 100
Source text: as §1, §2

[7] = test system: arrowleaf Sida (Sida rhombifolia); assay: Test E preemergence; conditions: scale 0 to 100
Source text: as §1, §2

[8] = test system: waterhemp (common waterhemp, Amaranthus rudis); assay: Test C preemergence; conditions: for Plant response rating, Waterhemp: scale 0 to 100, 0 no effect, 100 complete control
How it was run: (§3)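 Scores of 0 to 100 reflect visual comparison with control plants, where 0 means no effect and 100 complete control, made 13 to 15 d after treatment. Application was preemergence to seeds in loam-sand soil or postemergence to plants 2 to 18 cm tall in peat-based mix, using a surfactant-containing solvent formulation.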

[9] = test system: ragweed (common ragweed, Ambrosia elatior); assay: Test C preemergence; conditions: for Plant response rating, Ragweed: scale 0 to 100, 0 no effect, 100 complete control
How it was run: as §3

[10] = test system: wheat (winter wheat, Triticum aestivum); assay: Test C preemergence; conditions: for Plant response rating, Wheat: scale 0 to 100, 0 no effect, 100 complete control
How it was run: as §3

[11] = test system: lambsquarters (Chenopodium album); assay: Test C preemergence; conditions: for Plant response rating, Lambsquarters: scale 0 to 100, 0 no effect, 100 complete control
How it was run: as §3

[12] = test system: nutsedge, yellow (yellow nutsedge, Cyperus esculentus); assay: Test C preemergence; conditions: for Plant response rating, Nutsedge, Yellow: scale 0 to 100, 0 no effect, 100 complete control
How it was run: as §3

[13] = test system: crabgrass, large (large crabgrass, Digitaria sanguinalis); assay: Test C preemergence; conditions: for Plant response rating, Crabgrass, Large: scale 0 to 100, 0 no effect, 100 complete control
How it was run: as §3

[14] = test system: blackgrass (Alopecurus myosuroides); assay: Test C preemergence; conditions: for Plant response rating, Blackgrass: scale 0 to 100, 0 no effect, 100 complete control
How it was run: as §3

[15] = test system: oilseed rape (Brassica napus); assay: Test C preemergence; conditions: for Plant response rating, Oilseed Rape: scale 0 to 100, 0 no effect, 100 complete control
How it was run: as §3

[16] = 31 g ai/ha, 0 is no effect, 100 is complete control

CN1C[C@H](c2ccc(F)c(F)c2)[C@@H](C(=O)Nc2ccccc2F)C1=O [Compound 596, (3S,4S)-4-(3,4-difluorophenyl)-N-(2-fluorophenyl)-1-methyl-2-oxo-3-pyrrolidinecarboxamide]
40: Plant response rating: Dayflower, VA ([5]; 62 g ai/ha) | Plant response rating: Dayflower, VA ([5]; 125 g ai/ha) | Plant response rating, Blackgrass ([14]; 62 g ai/ha)
45: Plant response rating, Wheat ([10]; 62 g ai/ha)
65: Plant response rating: Goosegrass ([6]; 250 g ai/ha) | Plant response rating, Waterhemp ([8]; 250 g ai/ha)
80: Plant response rating: Kochia ([4]; 125 g ai/ha)
30: Plant response rating: Arrowleaf Sida ([7]; 62 g ai/ha) | Plant response rating: Arrowleaf Sida ([7]; 125 g ai/ha) | Plant response rating, Oilseed Rape ([15]; 125 g ai/ha)
60: Plant response rating, Lambsquarters ([11]; 62 g ai/ha)
20: Plant response rating, Ragweed ([9]; 62 g ai/ha)
25: Plant response rating: Kochia ([4]; 62 g ai/ha) | Plant response rating: Goosegrass ([6]; 125 g ai/ha) | Plant response rating, Waterhemp ([8]; 125 g ai/ha)
75: Plant response rating, Ragweed ([9]; 250 g ai/ha) | Plant response rating, Lambsquarters ([11]; 250 g ai/ha)
35: Plant response rating: Dayflower, VA ([5]; 250 g ai/ha) | Plant response rating: Arrowleaf Sida ([7]; 31 g ai/ha)
90: Plant response rating: Panicum, Fall ([2]; 250 g ai/ha) | Plant response rating: Kochia ([4]; 250 g ai/ha) | Plant response rating, Blackgrass ([14]; 250 g ai/ha) | Plant response rating, Oilseed Rape ([15]; 250 g ai/ha)
0: Plant response rating: Waterhemp ([1]; 31 g ai/ha) | Plant response rating: Waterhemp ([1]; 62 g ai/ha) | Plant response rating: Waterhemp ([1]; 125 g ai/ha) | Plant response rating: Panicum, Fall ([2]; 31 g ai/ha) | Plant response rating: Panicum, Fall ([2]; 62 g ai/ha) | Plant response rating: Panicum, Fall ([2]; 125 g ai/ha) | Plant response rating: Kochia ([4]; 31 g ai/ha) | Plant response rating: Dayflower, VA ([5]; 31 g ai/ha) | Plant response rating (scale of 0 to 100), Waterhemp [8, 16] | Plant response rating, Waterhemp ([8]; 62 g ai/ha) | Plant response rating (scale of 0 to 100), Nutsedge, Yellow [12, 16] | Plant response rating, Nutsedge, Yellow ([12]; 62 g ai/ha) | Plant response rating, Nutsedge, Yellow ([12]; 125 g ai/ha) | Plant response rating, Nutsedge, Yellow ([12]; 250 g ai/ha) | Plant response rating (scale of 0 to 100), Blackgrass [14, 16] | Plant response rating (scale of 0 to 100), Oilseed Rape [15, 16] | Plant response rating, Oilseed Rape ([15]; 62 g ai/ha)
5: Plant response rating: Goosegrass ([6]; 31 g ai/ha) | Plant response rating: Goosegrass ([6]; 62 g ai/ha)
100: Plant response rating, Crabgrass, Large ([13]; 62 g ai/ha) | Plant response rating, Crabgrass, Large ([13]; 125 g ai/ha) | Plant response rating, Crabgrass, Large ([13]; 250 g ai/ha)
70: Plant response rating, Wheat ([10]; 250 g ai/ha) | Plant response rating, Lambsquarters ([11]; 125 g ai/ha) | Plant response rating, Blackgrass ([14]; 125 g ai/ha)
50: Plant response rating: Waterhemp ([1]; 250 g ai/ha) | Plant response rating: Arrowleaf Sida ([7]; 250 g ai/ha) | Plant response rating, Ragweed ([9]; 125 g ai/ha) | Plant response rating, Wheat ([10]; 125 g ai/ha)
15: Plant response rating (scale of 0 to 100), Wheat [10, 16]
10: Plant response rating (scale of 0 to 100), Ragweed [9, 16] | Plant response rating (scale of 0 to 100), Lambsquarters [11, 16]
95: Plant response rating: Foxtail, Green ([3]; 31 g ai/ha) | Plant response rating: Foxtail, Green ([3]; 62 g ai/ha) | Plant response rating: Foxtail, Green ([3]; 125 g ai/ha) | Plant response rating: Foxtail, Green ([3]; 250 g ai/ha) | Plant response rating (scale of 0 to 100), Crabgrass, Large [13, 16]
